Results as given in patent EP3818828A1 (priority 2019, dated 2021).
Values after ≈ are worked out from the molar mass of the structure shown. Like-named read-outs stand apart in the source and are kept apart here.

Assays:
Format in all cases: cell-based
[1] = system: Botrytis cinerea; assay: Ex vivo mycelial growth inhibition, growth rate method; settings: 1 mg/mL
Description: (§1) 3-(3',4'-methylenedioxy phenyl)-N-n-propyl acrylamide (at a purity of 99%), 3-(3',4'-methylenedioxy phenyl)-piperidine acrylate (at a purity of 99%), the control agents, 96.5% of chlorothalonil technical (non-systemic broad-spectrum fungicide), 97.2% of carbendazim technical (systemic broad-spectrum fungicide), 97.0% of procymidone technical (systemic fungicide), 96.0% of dimethomorphtechnical ((E,Z)-4-[3-(4-chlorphenyl)3-(3,4-dimethoxy phenyl)acryloyl]morpholine, systemic fungicide), 97.0% of azoxystrobin technical (systemic broad-spectrum fungicide).
(§2) The inhibition of samples for testing on the mycelial growth of plant pathogenic fungi for testing is determined with a growth rate method. 3-(3',4'-methylenedioxy phenyl)-N-n-propyl acrylamide, 3-(3',4'-methylenedioxy phenyl)-piperidine acrylate and five control agents are dissolved with dimethyl sulfoxide (DMSO), then formulated at 5-7 concentrations of different gradients for test following the trial test results, with the same concentration of DMSO as the control solvent, each treatment in triplicate. Fungal cakes with a diameter of 4 mm are taken from the edge of the colony, inoculated into the center of a PDA plate containing different agents of different concentrations and the DMSO control, with one piece of fungal cake inoculated in each plate (with a diameter of […]), and incubated in a constant temperature incubator at a temperature of 22±1.5°C. 7 days later (10-20 days may be needed for some pathogenic fungi), the diameter of the colony is measured with a cross over method according to the mycelial growth profile of the control pathogenic fungi, then the inhibition rate of mycelial growth is calculated.
(§3) The computational formula is as below: the inhibition rate of mycelial growth (%) = [(the diameter of the control colony - the diameter of the treated colony)/the diameter of the control colony] × 100.
(§4) The inhibition results of each agent at a concentration of 1 mg/mL on the mycelial growth of plant pathogenic fungi are shown in Tables 1 and 2.

[2] = system: C. gossypii; assay: as above; settings: 1 mg/mL; for Average Diameter of the Colony: C. gossypii; for inhibition at 1000 µg/mL: Colletotrichum gossypii, C. cossypii, read-out: Inhibition Rate
Description: as §1, §2, §3, §4

[3] = system: Exserohilum turcicum; assay: as above; settings: 1 mg/mL
Description: as §1, §2, §3, §4

[4] = system: F. oxysporum f. sp. lini; assay: as above; settings: 1 mg/mL; for inhibition at 1000 µg/mL: Fusarium oxysporum
Description: as §1, §2, §3, §4

[5] = system: F. oxysporum f. sp. vasinfectum; assay: as above; settings: 1 mg/mL; for inhibition at 1000 µg/mL: Fusarium oxysporum
Description: as §1, §2, §3, §4

[6] = system: Mycosphaerlla melonis; assay: as above; settings: 1 mg/mL
Description: as §1, §2, §3, §4

[7] = system: Phytophthora capsici; assay: as above; settings: Phytophthora capsici; 1 mg/mL
Description: as §1, §2, §3, §4

[8] = system: Sclerotinia sclerotiorum; assay: as above; settings: 1 mg/mL
Description: as §1, §2, §3, §4

[9] = system: F. graminearum; assay: microbe, parasite or virus in culture; settings: for Average Diameter of the Colony: F. graminearum, 1 mg/mL; for inhibition at 1000 µg/mL: Fusarium graminearum, read-out: Inhibition Rate
[10] = system: Pyricularia grisea; assay: microbe, parasite or virus in culture; settings: for Average Diameter of the Colony: 1 mg/mL; for inhibition at 1000 µg/mL: read-out: Inhibition Rate
[11] = system: Phytophthora infestans; assay: microbe, parasite or virus in culture; settings: for Average Diameter of the Colony: 1 mg/mL
[12] = system: Phytophthora infestans; settings: Phytophthora infestas; 1 mg/mL
[13] = system: Botryosphaeria berengeriana; assay: Ex vivo mycelial growth inhibition, growth rate method; settings: 1 mg/mL
Description: as §1, §2, §3, §4

[14] = system: Botryosphaeriana berengeriana; assay: as above; settings: 1 mg/mL
Description: as §1, §2, §3, §4

[15] = system: Colletotrichum capsici; assay: as above; settings: 1 mg/mL
Description: as §1, §2, §3, §4

[16] = system: Coniella diplodiella; assay: as above; settings: 1 mg/mL
Description: as §1, §2, §3, §4

[17] = system: F. verticillioide; assay: as above; settings: 1 mg/mL
Description: as §1, §2, §3, §4

[18] = system: Gaeumannomyces graminis var. graminis and G. graminis var. tritici; assay: as above; settings: 1 mg/mL
Description: as §1, §2, §3, §4

[19] = system: Pythium aphanidermatum; assay: as above; settings: 1 mg/mL
Description: as §1, §2, §3, §4

[20] = system: Rhizoctonia solani; assay: as above; settings: Rhizoctonia solani; 1 mg/mL
Description: as §1, §2, §3, §4

[21] = system: Thanatephorus cucumeris; assay: as above; settings: 1 mg/mL
Description: as §1, §2, §3, §4

[22] = system: Valsa mali; assay: as above; settings: 1 mg/mL
Description: as §1, §2, §3, §4

[23] = system: Fusarium graminearum; assay: microbe, parasite or virus in culture
[24] = system: Botrytis cinerea; assay: Toxicity determination (EC50) on mycelial growth, growth rate method
Method: as §2
(§5) 3-(3',4'-methylenedioxy phenyl)-piperidine acrylate, the control agents 96.5% of chlorothalonil technical and 97.0% of procymidone technical. Agents for testing and the control agents chlorothalonil and procymidone are treated at 5-8 concentrations of different gradients on the basis of preliminary tests to ensure that the inhibition rates for treatments at all the concentrations are between 10% and 90%.
(§6) For specific determination methods, with reference to Embodiment 1. The concentration of active ingredients in the culture medium is used as the testing concentration to calculate the toxic regression equation (Y=bx+a) and the median inhibition concentration EC50, 95% confidence limit, and relative toxicity. Relative toxicity (compared to chlorothalonil) = EC50 of chlorothalonil / EC50 of 3-(3',4'-methylenedioxy phenyl)-piperidine acrylate, and relative toxicity (compared to procymidone) = EC50 of procymidone / EC50 of 3-(3',4'-methylenedioxy phenyl)-piperidine acrylate.

[25] = system: Colletotrichum capsici; assay: as above
Method: as §2, §5, §6

[26] = system: Exserohilum turcicum; assay: as above
Method: as §2, §5, §6

[27] = system: Sclerotinia sclerotiorum; assay: as above
Method: as §2, §5, §6

[28] = system: Valsa mali; assay: as above
Method: as §2, §5, §6

[29] = system: Fusarium graminearum; assay: microbe, parasite or virus in culture; remark: listed apart in the source
[30] = system: F. graminearum; assay: microbe, parasite or virus in culture
[31] = system: Magnaporthe grisea; assay: microbe, parasite or virus in culture
[32] = system: Phytophthora infestans; assay: microbe, parasite or virus in culture
[33] = EC50 of chlorothalonil / EC50 of agent
[34] = EC50 of procymidone / EC50 of agent
[35] = median inhibition concentration

COc1ccc(C(=CC(=O)N2CCOCC2)c2ccc(Cl)cc2)cc1OC [Dimethomorph, (E,Z)-4-[3-(4-chlorphenyl)3-(3,4-dimethoxyphenyl)acryloyl]morpholine]
Average Diameter of the Colony [1]: 2.33 cm | inhibition at 1000 µg/mL [1]: 74.1% | Average Diameter of the Colony [2]: 3.93 cm | inhibition at 1000 µg/mL [2]: 56.3% | Average Diameter of the Colony [3]: 6.50 cm | inhibition at 1000 µg/mL [3]: 27.8% | Average Diameter of the Colony [4]: 6.27 cm | inhibition at 1000 µg/mL [4]: 30.3% | Average Diameter of the Colony [5]: 6.03 cm | inhibition at 1000 µg/mL [5]: 33% | Average Diameter of the Colony [6]: 2.13 cm | inhibition at 1000 µg/mL [6]: 76.3% | Average Diameter of the Colony [7]: 0.00 cm | inhibition at 1000 µg/mL [7]: 100% | Average Diameter of the Colony [8]: 4.77 cm | inhibition at 1000 µg/mL [8]: 47% | Average Diameter of the Colony [9]: 6.23 cm | inhibition at 1000 µg/mL [9]: 30.8% | Average Diameter of the Colony [10]: 6.67 cm | inhibition at 1000 µg/mL [10]: 25.9% | Average Diameter of the Colony [11]: 0.00 cm | inhibition at 1000 µg/mL ([11]; read-out: Inhibition Rate): 100%

N#Cc1c(Cl)c(Cl)c(Cl)c(C#N)c1Cl [Chlorothalonil, chlorothalonil]
Average Diameter of the Colony [12]: 1.78 cm | Average Diameter of the Colony [13]: 2.11 cm | inhibition at 1000 µg/mL [13]: 69% | Average Diameter of the Colony [14]: 0.94 cm | inhibition at 1000 µg/mL [14]: 83.5% | Average Diameter of the Colony [1]: 1.16 cm | inhibition at 1000 µg/mL [1]: 84.5% | Average Diameter of the Colony [2]: 1.45 cm | inhibition at 1000 µg/mL [2]: 73.2% | Average Diameter of the Colony [15]: 1.95 cm | inhibition at 1000 µg/mL ([15]; Colletotrichum truncatum): 71.2% | Average Diameter of the Colony [16]: 0.00 cm | inhibition at 1000 µg/mL [16]: 100% | Average Diameter of the Colony [3]: 1.41 cm | inhibition at 1000 µg/mL [3]: 77.3% | Average Diameter of the Colony [4]: 3.73 cm | inhibition at 1000 µg/mL [4]: 58.6% | Average Diameter of the Colony [5]: 2.45 cm | inhibition at 1000 µg/mL [5]: 66.2% | Average Diameter of the Colony [17]: 0.87 cm | inhibition at 1000 µg/mL [17]: 74.3% | Average Diameter of the Colony [18]: 2.51 cm | inhibition at 1000 µg/mL [18]: 64.9% | Average Diameter of the Colony [6]: 2.16 cm | inhibition at 1000 µg/mL [6]: 74.9% | Average Diameter of the Colony [7]: 0.91 cm | inhibition at 1000 µg/mL [7]: 82.8% | Average Diameter of the Colony [19]: 1.14 cm | inhibition at 1000 µg/mL [19]: 83% | Average Diameter of the Colony [20]: 0.00 cm | inhibition at 1000 µg/mL [20]: 100% | Average Diameter of the Colony [8]: 0.00 cm | inhibition at 1000 µg/mL [8]: 100% | Average Diameter of the Colony [21]: 1.05 cm | inhibition at 1000 µg/mL [21]: 87.8% | Average Diameter of the Colony [22]: 1.65 cm | inhibition at 1000 µg/mL ([22]; Cytospora mali): 79.1% | Average Diameter of the Colony ([23]; 1 mg/mL): 0.71 cm | inhibition at 1000 µg/mL ([23]; read-out: Inhibition Rate): 86.7% | Average Diameter of the Colony [9]: 1.92 cm | inhibition at 1000 µg/mL [9]: 77.7% | Average Diameter of the Colony [10]: 1.63 cm | inhibition at 1000 µg/mL [10]: 81.9% | Average Diameter of the Colony [11]: 0.20 cm | Relative Toxicity (Compared to Chlorothalonil) [24, 33]: 1.00 | Relative Toxicity (Compared to Procymidone) [24, 34]: 0.45 | EC50 [24, 35]: 177 µg/mL (≈ 665 µM) | EC50 ([25]; Colletotrichum truncatum, median inhibition concentration, read-out: EC50): 404 µg/mL (≈ 1520 µM) | Relative Toxicity (Compared to Chlorothalonil) [25, 33]: 1.00 | Relative Toxicity (Compared to Procymidone) [25, 34]: 1.28 | Relative Toxicity (Compared to Chlorothalonil) [26, 33]: 1.00 | Relative Toxicity (Compared to Procymidone) [26, 34]: 0.26 | EC50 ([26]; median inhibition concentration, read-out: EC50): 411 µg/mL (≈ 1550 µM) | Relative Toxicity (Compared to Chlorothalonil) [27, 33]: 1.00 | Relative Toxicity (Compared to Procymidone) [27, 34]: 1.13 | EC50 [27, 35]: 62.7 µg/mL (≈ 236 µM) | EC50 ([28]; Cytospora mali, median inhibition concentration, read-out: EC50): 418 µg/mL (≈ 1570 µM) | Relative Toxicity (Compared to Chlorothalonil) [28, 33]: 1.00 | Relative Toxicity (Compared to Procymidone) [28, 34]: 1.02 | Relative Toxicity (Compared to Chlorothalonil) [29, 33]: 1.00 | Relative Toxicity (Compared to Procymidone) [29, 34]: 0.31 | EC50 [29, 35]: 469 µg/mL (≈ 1760 µM) | Relative Toxicity (Compared to Chlorothalonil) [30, 33]: 1.00 | Relative Toxicity (Compared to Procymidone) [30, 34]: 3.75 | EC50 ([30]; Fusarium graminearum, median inhibition concentration): 227 µg/mL (≈ 853 µM) | Relative Toxicity (Compared to Chlorothalonil) [31, 33]: 1.00 | Relative Toxicity (Compared to Procymidone) [31, 34]: 0.71 | EC50 ([31]; Pyricularia oryzae, median inhibition concentration): 436 µg/mL (≈ 1640 µM) | Relative Toxicity (Compared to Chlorothalonil) [32, 33]: 1.00 | Relative Toxicity (Compared to Procymidone) [32, 34]: 6.78 | EC50 [32, 35]: 115 µg/mL (≈ 431 µM)
